Measured values published in patent EP2535049A1 (Proyecto de Biomedicina Cima, S.L., priority 2011, dated 2012).
“Also recorded” adds a separate entry of the source.

Columns and labels:
GluR2/3 = test: Western blot of GluR2/3 in hippocampus of J20 mice; assay type: in vivo; conditions: J20 mice treated for 10 weeks
Protocol: (§1) Results were compared with those obtained from age-matched negative littermates (controls). To test the effect of the PDE5 inhibitors in cognition capacity related to aging, a second treatment was carried out using 10-12 month-old non-transgenic (wild type) mice on an inbred C57/B6xSJL genetic background.
(§2) Twenty four hours after the fear conditioning test, animals (n=5, per group) were sacrificed and the brains removed for biochemical studies. The cortex and hippocampus were dissected, homogenized, and processed as described below for subsequent western blot analysis. […]
(§3) Total tissue homogenates were obtained by homogenizing the hippocampus in a cold lysis buffer with protease inhibitors (0.2 M NaCl, 0.1 M HEPES, 10% glycerol, 200 mM NaF, 2 mM Na4P2O7, 5 mM EDTA, 1 mM EGTA, 2 mM DTT, 0.5 mM PMSF, 1 mM Na3VO4, 1 mM benzamidine, 10 µg/ml leupeptin, 400 U/ml aprotinin), centrifuged at 14,000 x g 4 °C for 20 minutes and the supernatant was aliquoted and stored at -80 °C. Total protein concentrations were determined using the BioRad Bradford protein assay (BioRad Laboratories).
(§4) Protein samples were mixed with an equal volume of 2 x Laemmli sample buffer, resolved onto SDS-polyacrylamide gels and transferred to nitrocellulose membrane. […] Quantity OneTM software v.4.6.3 (Bio-Rad) was used for quantification.

PSD95 = test: Western blot of PSD95 in hippocampus of J20 mice; assay type: in vivo; conditions: J20 mice treated for 10 weeks
Protocol: as §1, §2, §3, §4

pGSK3β-Ser9 = test: Western blot of pGSK3β-Ser9 in hippocampus of J20 mice; assay type: in vivo; conditions: J20 mice treated for 10 weeks, vs saline
Protocol: as §1, §2, §3, §4

[1] = Kulkarni and Patil 2004; Forgue et al., 2006; cited from earlier work
pTau = test: Western blot of pTau in hippocampus of J20 mice; assay type: in vivo; conditions: J20 mice (22-month-old) treated for 10 weeks, normalized to total Tau
Protocol: as §1
Twenty four hours after the fear conditioning test, animals (n=5, per group) were sacrificed and the brains removed for biochemical studies. The cortex and hippocampus were dissected, homogenized, and processed as described below for subsequent western blot analysis. Under xylazine/ketamine anesthesia, animals (n=4 per group) were perfused transcardially with saline and 4% paraformaldehyde in phosphate buffer (PB). After perfusion, brains were removed, post-fixed in the same fixative solution for 1 h at room temperature and cryoprotected in 30% sucrose solution in PB overnight at 4 °C. Microtome sections ([…]) were cut coronally, collected free-floating and stored in 30% ethylene glycol, 30% glycerol, and 0.1M PB at - 20 °C until processed.
as §3
Protein samples were mixed with an equal volume of 2 x Laemmli sample buffer, resolved onto SDS-polyacrylamide gels and transferred to nitrocellulose membrane. […] Following two washes in PBS/Tween-20 or TBS/Tween-20 and one PBS or TBS alone, immunolabeled protein bands were detected by using HRP-conjugated anti-rabbit or anti-mouse antibody (Santa Cruz; dilution 1:5000) following an enhanced chemiluminescence system (ECL, GE Healthcare Bioscience, Buckinghamshire, UK), and autoradiographic exposure to Hyperfilm™ECL (GE Healthcare Bioscience). Quantity OneTM software v.4.6.3 (Bio-Rad) was used for quantification.

AD mouse models = conditions: Puzzo et al., 2009; cited from earlier work
[2] = system: aged wild type animals (C57/b6xSJL); test: Morris water maze in aged wild type animals; assay type: in vivo, mice; conditions: 5-weeks treatment, 15 mg/Kg orally; aged (12-14-month-old) wild type animals; vs saline
Protocol: Results were compared with those obtained from age-matched negative littermates (controls). […] The MWM test was used to evaluate spatial memory as previously described (Hsiao et al., 1996; Reed et al., 2010; Ricobaraza et al., 2009). After treatments, groups of animals underwent spatial reference learning and memory testing in the MWM. The water maze was a circular pool (diameter 1.2 m) filled with water maintained at 20 °C and made opaque by the addition of non-toxic white paint. Mice were trained for three consecutive days (8 trials/day) swimming to a raised platform (visible-platform). No distal visible cues were present during this phase. The same platform location was used for all visible-platform sessions and was changed for the invisible-platform training (submerged 1 cm beneath the surface) conducted over 8 consecutive days (4 trials/day) with all visible distal cues present in this phase. […] In the probe trials the platform was removed from the pool, and the percentage of time spent in the quadrant where the platform was previously set was recorded. All trials were monitored by a camera above the center of the pool connected to a SMART-LD program (Panlab S.L., Barcelona, Spain) for subsequent analysis of escape latencies, swimming speed, path length and percent time spent in each quadrant of the pool during probe trials. […]

synaptophysin = test: Western blot of synaptophysin in hippocampus of J20 mice; assay type: in vivo; conditions: J20 mice treated for 10 weeks
Protocol: as §1, §2, §3, §4

Row | Structure (SMILES) | expression levels of GluR2/3 (GluR2/3) | expression levels of PSD95 (PSD95) | pGSK3β-Ser9 levels (pGSK3β-Ser9) | half-life in blood serum [1] [h] | pTau levels (AT8) by Western blotting (pTau) | effect on memory in AD mouse models (AD mouse models) | learning ability and memory retention in the MWM [2] | expression levels of synaptophysin (synaptophysin) | pTau levels (PHF1) by Western blotting (pTau) | pTau levels (AT8) by Western blotting (pTau; listed as Tadalafil)
1 | CCCc1nn(C)c2c(=O)[nH]c(-c3cc(S(=O)(=O)N4CCN(C)CC4)ccc3OCC)nc12 [sildenafil] | recovered the low expression levels | recovered the low expression levels | significantly increased | 3.4 | decrease in Tau pathology | efficacious drug in improving memory | only observed in the FC test | recovered the low expression levels |  | 
2 | CN1CC(=O)N2[C@H](c3ccc4c(c3)OCO4)c3[nH]c4ccccc4c3C[C@@H]2C1=O [tadalafil, (6R-trans)-6-(1,3-benzodioxol-5-yl)-2,3,6,7,12,12a-hexahydro-2-methyl-pyrazino [1',2':1,6] pyrido [3,4-b]indole-1,4-dione] | recovered the low expression levels | recovered the low expression levels | significantly increased; also recorded: being higher the effect of tadalafil | 18 | decrease in Tau pathology | no effect was demonstrated | improved learning ability and memory retention | recovered the low expression levels | more marked in tadalafil-treated mice | even more effective than sildenafil
